Test results taken from patent US20120189603A1, “STORAGE-STABLE, SYNERGISTIC MICROBICIDAL CONCENTRATES CONTAINING AN ISOTHIAZOLONE, AN AMINE AND AN OXIDIZING AGENT” (L"AIR LIQUIDE, SOCIETE ANONYME POUR L'ETUDE ET L' …, priority 2009, published 2012).

Legend:
Test in all cases: Germ-count reduction test, sterile town water, pH adjusted to 8.2
Parameters in all cases: key: −: growth-free; +: slight growth; ++: moderate growth; +++: considerable growth; ++++: massive growth; L: lawn-like growth
Conditions in all cases: +0.01% 2
C. albicans = assay type: cell-based, Candida albicans
Procedure: (§1) The pH was adjusted to 8.2 with HCl.
A 4-day-old Candida albicans culture (CSA+grape sugar) is elutriated with 5 ml of physiological sodium chloride solution and adjusted in accordance with a barium sulphate standard (see DVG Guideline). The titre of the Candida albicans suspension is 10^8 CFU/ml.
(§2) A dilution series of four concentrations is prepared from the active ingredient to be tested and poured into 10 ml sterile tubes. One dilution series is required per test germ. Each tube is inoculated with 0.1 ml of the individual germ suspensions.
(§3) […] The bacteria are streaked on CSA and incubated for 48 hours at 37° C. (Pseudomonas aeruginosa and Staphylococcus aureus) or 25° C. (Pseudomonas fluorescens/Pseudomonas putida). The fungi are streaked on Sabouraud agar and incubated for 48 hours at 37° C. (Candida albicans) and 25° C. (Aspergillus niger).

P. aeruginosa = assay type: cell-based, Pseudomonas aeruginosa
Procedure: as §1
(§4) 24-Hour CSL cultures are prepared from 24-hour CS slant agar cultures of Staphylococcus aureus/Pseudomonas aeruginosa. Incubation takes place at 37° C.
(§5) The titre of the bacteria suspensions is ca. 10^9 CFU/ml.
as §2, §3

E. coli = assay type: cell-based
A. niger = assay type: cell-based, Aspergillus niger
Procedure: as §1
A 7-14-day-old Aspergillus niger culture on Sabouraud agar is elutriated with 5 ml of NaCl, filtered through a glass filter containing glass wool and topped up to 200 ml. This suspension has a titre of ca. 10^7 CFU/ml.
as §2, §3

S. aureus = assay type: cell-based, Staphylococcus aureus
Procedure: as §1, §4, §5, §2, §3

P. funiculosum = assay type: cell-based

Measured: growth

CCCCCCCCCCCCN(CCCN)CCCN [compound 2, bis(aminopropyl)dodecylamine]
+: P. aeruginosa; 1 h | P. aeruginosa; 3 h | E. coli; 1 h
−: C. albicans; 1 h | C. albicans; 3 h | C. albicans; 6 h | C. albicans; 24 h | P. aeruginosa; 6 h | P. aeruginosa; 24 h | E. coli; 3 h | E. coli; 6 h | E. coli; 24 h | A. niger; 1 h | A. niger; 3 h | A. niger; 6 h | A. niger; 24 h | S. aureus; 1 h | S. aureus; 3 h | S. aureus; 6 h | S. aureus; 24 h | P. funiculosum; 1 h | P. funiculosum; 3 h | P. funiculosum; 6 h | P. funiculosum; 24 h
